Data as given in ChEMBL document CHEMBL4673220, “Synthesis of new coumarin tethered isoxazolines as potential anticancer agents” (Bioorg Med Chem Lett, 2018).
Active and inactive are the calls of the source. The calls are words filed in the database; no cut-off is given here.

Tests used:
UACC-903 [1] = test: Antiproliferative activity against human UACC-903 cells assessed as reduction in cell viability at 0.5 to 200 uM measured after 72 hrs by MTS assay; format: functional, cell-based; details: dose 0.5-200 µM
[2] = Cytotoxicity against human FF2441 cells assessed as reduction in cell viability at 0.2 to 100 uM measured after 72 hrs by MTS assay; format: cell-based; details: ff2441, 72 h, dose 0.2-100 µM
UACC-903 [3] = test: Antiproliferative activity against human UACC-903 cells assessed as reduction in cell viability at 0.5 to 200 uM by MTS assay; format: functional, cell-based; details: dose 0.5-200 µM, TDE = time-dependent effect
UACC-903 [4] = test: Antiproliferative activity against human UACC-903 cells assessed as reduction in cell viability measured after 72 hrs by MTS assay; format: functional, cell-based; details: for IC50: UACC-903, 72 h
Chorioallantoic membrane [5] = test: Antiangiogenic activity in chicken fertilized egg chorioallantoic membrane assessed as inhibition of expression of VEGF-like factors; format: functional; details: Gallus gallus, Embryo
Ehrlich [6] = test: Antitumor activity against mouse EAT cells implanted in ip dosed Swiss albino mouse assessed as tumor regression administered on day 7, 9 and 11 post implantation and measured on day 12; format: functional, organism-based; details: time 3.0 day
Ehrlich [7] = test: Antitumor activity against mouse EAT cells implanted in ip dosed Swiss albino mouse assessed as induction of apoptosis causing membrane blebbing administered on day 7, 9 and 11 post implantation and measured on day 12 by Giemsa staining based light microscopy; format: functional, organism-based; details: dose 100.0 mg/kg, time 3.0 day
Chorioallantoic membrane [8] = test: Antiangiogenic activity in chicken fertilized egg chorioallantoic membrane assessed as inhibition of secretion of VEGF-like factors; format: functional; details: Gallus gallus, Embryo
Chorioallantoic membrane [9] = test: Antiangiogenic activity in chicken fertilized egg chorioallantoic membrane assessed as inhibition of VEGF165-induced vascularization incubated for 2 days by digital camera photography analysis; format: functional; details: Gallus gallus, Embryo, time 2.0 day
Ehrlich [10] = test: Antitumor activity against mouse EAT cells implanted in ip dosed Swiss albino mouse assessed as increase in mouse survival at 100 mg/kg, ip administered on day 7, 9 and 11 post implantation and measured after 35 days relative to control; format: functional; details: time 35 day
Ehrlich [11] = test: Antitumor activity against mouse EAT cells implanted in Swiss albino mouse assessed as tumor suppression at 100 mg/kg, ip administered on day 7, 9 and 11 post implantation and measured on day 12 relative to control; format: functional; details: 72 h, time 3 day
Ehrlich [12] = test: Antitumor activity against mouse EAT cells implanted in ip dosed Swiss albino mouse assessed as decrease in ascitic cell viability administered on day 7, 9 and 11 post implantation and measured on day 12 by tryphan blue assay; format: functional, organism-based; details: dose 100.0 mg/kg, time 3.0 day
Ehrlich [13] = test: Antitumor activity against mouse EAT cells implanted in ip dosed Swiss albino mouse assessed as induction of apoptosis causing apoptotic body formation administered on day 7, 9 and 11 post implantation and measured on day 12 by Giemsa staining based light microscopy; format: functional, organism-based; details: dose 100.0 mg/kg, time 3.0 day
Ehrlich [14] = test: Antitumor activity against mouse EAT cells implanted in ip dosed Swiss albino mouse assessed as suppression of peritoneal angiogenesis at […] administered on day 7, 9 and 11 post implantation and measured on day 12 by Hematoxylin and eosin staining based assay; format: functional, organism-based; details: time 3.0 day
Ehrlich [15] = test: Antitumor activity against mouse EAT cells implanted in ip dosed Swiss albino mouse assessed as induction of apoptosis causing shrinkage of cells administered on day 7, 9 and 11 post implantation and measured on day 12 by Giemsa staining based light microscopy; format: functional, organism-based; details: dose 100.0 mg/kg, time 3.0 day
Ehrlich [16] = test: Antitumor activity against mouse EAT cells implanted in ip dosed Swiss albino mouse assessed as induction of apoptosis causing plasma membrane degradation administered on day 7, 9 and 11 post implantation and measured on day 12 by Giemsa staining based light microscopy; format: functional, organism-based; details: dose 100.0 mg/kg, time 3.0 day
Ehrlich [17] = test: Antitumor activity against mouse EAT cells implanted in ip dosed Swiss albino mouse assessed as decrease in ascitic fluid administered on day 7, 9 and 11 post implantation and measured on day 12; format: functional, organism-based; details: dose 100.0 mg/kg, time 3.0 day
[18] = Toxicity in Swiss albino mouse implanted with mouse EAT cells assessed as decrease in body weight at 100 mg/kg, ip administered on day 7, 9 and 11 post implantation and measured on day 12; format: organism-based; details: in vivo, 72 h, time 3 day

SMILES: Cc1cc(=O)oc2cc(OCC3CC(c4ccc5ccccc5c4)=NO3)ccc12 (configuration not stated)
- Activity (UACC-903 [1]): inactive
- Activity [2]: Non-Toxic

SMILES: COc1ccc(C2=NOC(COc3ccc4c(C)cc(=O)oc4c3)C2)cc1 (configuration not stated)
- Activity (UACC-903 [3]): Tde
- Activity (UACC-903 [4]): Dose-dependent effect
- IC50 (UACC-903 [4]): 8.8 µM

SMILES: Cc1cc(=O)oc2cc(OCC3CC(c4ccccc4Cl)=NO3)ccc12 (configuration not stated)
- Activity (UACC-903 [3]): Tde
- Activity (UACC-903 [4]): Dose-dependent effect
- IC50 (UACC-903 [4]): 9.2 µM

SMILES: Cc1cc(=O)oc2cc(OCC3CC(c4ccc(C(F)(F)F)cc4)=NO3)ccc12 (configuration not stated)
- Activity (UACC-903 [1]): inactive
- Activity [2]: Non-Toxic

SMILES: Cc1cc(=O)oc2cc(OCC3CC(c4cccc(F)c4)=NO3)ccc12 (configuration not stated)
- Activity (UACC-903 [1]): inactive
- Activity [2]: Non-Toxic

SMILES: COc1cc(C2=NOC(COc3ccc4c(C)cc(=O)oc4c3)C2)cc(OC)c1OC (configuration not stated)
- Activity (UACC-903 [1]): inactive
- Activity [2]: Non-Toxic

SMILES: COc1ccc(C2=NOC(COc3ccc4c(C)cc(=O)oc4c3)C2)cc1OC (configuration not stated)
- Activity (Chorioallantoic membrane [5]): Active
- Activity (Ehrlich [6]): Dose-dependent effect
- Activity (Ehrlich [7]): Active
- Activity (Chorioallantoic membrane [8]): Active
- Activity (Chorioallantoic membrane [9]): Active
- fold change (FC) (Ehrlich [10]): 2
- inhibition in vivo at 100 mg/kg (Ehrlich [11]): 85%
- Activity (UACC-903 [3]): Tde
- Activity (Ehrlich [12]): Active
- Activity (Ehrlich [13]): Active
- Activity (UACC-903 [4]): Dose-dependent effect
- IC50 (UACC-903 [4]): 10.5 µM
- Activity (Ehrlich [14]): Active
- Activity (Ehrlich [15]): Active
- Activity (Ehrlich [16]): Active
- Activity (Ehrlich [17]): Active
- Activity [18]: Toxic

SMILES: Cc1cc(=O)oc2cc(OCC3CC(c4ccc(Br)cc4)=NO3)ccc12 (configuration not stated)
- Activity (UACC-903 [1]): inactive
- Activity [2]: Non-Toxic

SMILES: Cc1cc(=O)oc2cc(OCC3CC(c4ccc(F)cc4)=NO3)ccc12 (configuration not stated)
- Activity (UACC-903 [1]): inactive
- Activity [2]: Non-Toxic

SMILES: COc1cccc(C2=NOC(COc3ccc4c(C)cc(=O)oc4c3)C2)c1 (configuration not stated)
- Activity (UACC-903 [1]): inactive
- Activity [2]: Non-Toxic

SMILES: Cc1cc(=O)oc2cc(OCC3CC(c4c(F)cccc4Cl)=NO3)ccc12 (configuration not stated)
- Activity (UACC-903 [3]): Tde
- Activity (UACC-903 [4]): Dose-dependent effect
- IC50 (UACC-903 [4]): 4.5 µM

SMILES: Cc1cc(=O)oc2cc(OCC3CC(c4ccc(Cl)cc4)=NO3)ccc12 (configuration not stated)
- Activity (UACC-903 [1]): inactive
- Activity [2]: Non-Toxic
